The subject of experiment [1] is MTX-sensitive HT-1080 tumor xenograft. In words: Tumor response (in vivo surviving fraction) with leucovorin rescue, HT-1080 xenograft. More on the design: species or system athymic nude mice. How it is done:
At 6 hours post 3′-fluoromethotrexate administration mice received i.p. hydration of 1.0 cc normal saline and at 24 hours received leucovorin (Bedford Laboratories, Bedford, Ohio) rescue therapy (36). This protocol allows the mice to survive what would otherwise be a fatal dosage of 3′-fluoromethotrexate and is analogous to that used in high-dose MTX therapy in humans. Tumor growth was monitored post-therapy.
The 3 perpendicular axes of the tumor were measured with a micrometer and the tumor volume modeled as a spheroid, i.e., v=π/6a·b·c, where a, b, c are the dimensions of the tumor axes in cm.
The parameter DT0 is the mean doubling time of the untreated, control group for each xenograft tumor model and TGD is the tumor growth delay for the treated tumor (the difference in tumor doubling time between the treated tumor and DT0).
Analysis of the tumor growth post-therapy allows for a comparison of the efficacy of MTX and 3′-fluoromethotrexate in terms of SF, the fraction of cells in the pretreatment tumor surviving therapy (Eqn. 3).

In experiment [2] the test system is human sarcoma cell line HT-1080. In words: In vitro cytotoxicity against HT-1080, XTT/PMS cell viability assay.

“And” between values parts separate entries of the source, which are not always exact repeats. Identical values can stand only once. Like-named read-outs stand apart in the source and are kept apart here.

As to `CN(Cc1cnc2nc(N)nc(N)c2n1)c1ccc(C(=O)N[C@@H](CCC(=O)O)C(=O)O)cc1` [MTX, methotrexate], the “SF, in vivo surviving fraction” value is listed as 0.64±0.08 in experiment [1] (200 mg/kg, HT-1080 model) and 0.56±0.07 in experiment [1] (400 mg/kg i.v. bolus, HT-1080 model). The IC50 in experiment [2] (Homo sapiens, HT-1080, 24 h, read-out: IC50 for 24 h drug exposure, normal medium = RPMI-1640 medium + 10% FCS, 24 h exposure) turned out to be 445 ± 148 nM; in experiment [2] (Homo sapiens, HT-1080, 24 h, read-out: IC50 for 24 h drug exposure, treated medium = thymidine-free RPMI-1640 + 10% FCS, 24 h exposure), 69 ± 19 nM.
Consider “N-(2-Fluoro-4-amino-4-deoxy-N-methyl-pteroyl)-L-glutamic acid [FMTX]”, for which the “SF, in vivo surviving fraction” value in experiment [1] (mouse, in vivo) was 0.29±0.06 and 0.42±0.04. In addition, the IC50 in experiment [2] (read-out: IC50 for 24 h drug exposure, normal medium = RPMI-1640 medium + 10% FCS, 24 h exposure) is 345 ± 117 nM; in experiment [2] (read-out: IC50 for 24 h drug exposure, treated medium = thymidine-free RPMI-1640 + 10% FCS, 24 h exposure), 26 ± 5 nM.

The IC50 is the concentration that inhibits the measured activity by half.

These data come from patent US20040259878A1, “Fluoromethotrexates and uses therefor” (priority 2003, published 2004).
